Test results taken from a melting point compilation (Tetko et al.; mined from patent text by program, amines drawn as free bases though some values may be those of a salt).

| Structure (SMILES) | melting point [°C] |
| --- | --- |
| CCCCC(=O)OCC=C(C)CCC=C(C)CCC=C(C)CCC=C(C)CCC=C(C)CCC=C(C)CCC=C(C)CCC=C(C)CCC=C(C)C | 34 to 35 |
| Cc1cc(COc2ccc(S(=O)(=O)NC[C@@H](C(=O)NO)N3CCN(S(C)(=O)=O)CC3)cc2)c2ccccc2n1 | 185 |
| CCn1ncc(C(=O)c2ccc(S(C)(=O)=O)c(-c3ccccc3C)c2C)c1O | 179 to 180 |
| Nc1ncc(CN2CC=C(c3ccccc3)CC2)c(N)n1 | 239 to 241 |
| N#Cc1ccc2c(CCC3CCN(Cc4ccccc4)CC3)noc2c1 | 113 to 114 |
| N#CCN1C(=O)N(c2ccc(C#N)c(C(F)(F)F)c2)C(=O)C12CCOCC2 | 210 to 211 |
| CC(C)c1nc(CO)n(Cc2ccccc2)c1Sc1cc(Cl)cc(Cl)c1 | 121 to 124 |
| NCCCCCCCCCCCCCCCCCCCC(=O)O | 172 to 174 |
| CC(=O)N(OC(=O)NC(C)(C)C)C(=O)NC(C)(C)C | 111 to 113 |
| Nc1ccc(C=C2SC(=O)NC2=O)cc1 | 265 to 270 |
| Cc1cc(=O)n2cccc(OCC=Cc3ccccc3)c2n1 | 154 to 155 |
| COc1cc(OC)nc(C2OC(=O)c3c(-c4ccccc4)ccnc32)n1 (stereo unspecified) | 151 to 154 |
| CN1CCN(c2ccc3c(=O)c(C(=O)O)cn4c3c2CCC4)CC1 | 278 to 280 |
| COc1ccc2c(c1)C1=C(SCC3(CCN(CC(O)COc4ccc(F)cc4)CC3)O1)C(=O)C2=O (stereo unspecified) | 80 to 81 |
| COC(=O)c1ccc2oc(-c3ccccc3OC(C)C)cc(=O)c2c1 | 154 to 155 |
| COC(=O)c1ccc(CNC(=O)c2cccc(-c3nnn(Cc4ccc(OC)cc4)n3)c2)cc1 | 167 to 168 |
| CC(C)(C)C(=O)C(C(O)C(Cl)(Cl)Cl)n1cncn1 (stereo unspecified) | 220 to 222 |
| Brc1ccccc1P(c1cccc2ccccc12)c1cccc2ccccc12 | 206 to 207 |
| CC(C)(C)OC(=O)N1CCNC(=O)C1Cc1ccccc1 (stereo unspecified) | 152 to 154 |
| O=C1CCC(c2cc(F)c(F)c(F)c2)CC1 | 124 |
| Cc1nc(-c2ccccc2F)cn1-c1ccc(COc2ncc(C(F)(F)F)cc2Cl)cc1 | 109 |
| COc1ccc2c(c1)CCC1C2CCC2(C)C(O)C(C)CC12 (stereo unspecified) | 100 to 102 |
| CNC(=O)c1ccc(F)c(F)c1 | 143 to 145 |
| CCCCCCCCCCC[C@@H](O)CC(=O)OCC(=O)c1ccc(Br)cc1 | 109 to 110 |

| Structure (SMILES) | melting point [°C] |
| --- | --- |
| O=C(O)C12CCCCC1CSc1ccccc12 (stereo unspecified) | 200 to 203 |
| CCCCn1c(=O)c2cn(S(=O)(=O)c3ccc(C(F)(F)F)cc3)nc2n(CCCC)c1=O | 151 to 153 |
| COc1ccc2c(c1)c(CC(=O)O[C@H]1CO[C@H]3[C@H]1OC[C@H]3O[N+](=O)[O-])c(C)n2C(=O)c1ccc(Cl)cc1 | 159 to 160 |
| OCCOc1ccc(-c2nc(-c3ccc(OCCO)cc3O)nc(-c3ccc(OCCO)cc3O)n2)c(O)c1 | 195 |
| COP(=S)(OC)Oc1nsc(SC)n1 | 45 |
| CCCNC(=S)NS(=O)(=O)c1cc2c(cc1OC)OCC(NC(=O)c1cc(F)ccc1OC)C2 (stereo unspecified) | 172 to 173 |
| CCCc1c[nH]c(-c2ccnc(NC(=O)c3ccccc3)c2)n1 | 95 to 97 |
| CC1(O)CC(=O)OC(c2ccc(OCc3ccccc3)cc2)C1Br (stereo unspecified) | 157 to 162 |
| Cc1oc2c(C)cc(C=O)cc2c1C | 57 to 58 |
| CC1(C)OC(=O)C(Oc2ccc3ncccc3c2)=C1c1ccc(S(C)(=O)=O)cc1 | 171 to 172 |
| CCOC(=O)c1cnc(Cl)cc1NCc1ccc(OC)c(Cl)c1 | 116 to 118 |
| O=C(Nc1ccccc1)N1CC2CCC(C1)O2 | 184 to 186 |
| COC(=O)c1ncccc1SCc1ccc(OC)cc1 | 99 to 100 |
| COC(=O)CCCc1cc2cc(Cl)ccc2n1S(=O)(=O)c1ccc2nc(C)oc2c1 | 100 to 110 |
| O=C(O)C(C1CC(Cl)=NO1)N1C(=O)c2ccccc2C1=O (stereo unspecified) | 178 to 179 |
| O=c1[nH]nc2c3c(cccc13)Oc1ccc(COP(=O)(OCc3ccccc3)OCc3ccccc3)cc1-2 | 223 to 225 |
| COc1ccc(C(=O)CC2CCCCC2=O)cc1 (stereo unspecified) | 98 to 99 |
| O=C(Nc1ccccc1F)c1c[nH]c2c1C(=O)CCC2 | 238 to 240 |
| COC(=O)/C=C/c1cccc(-c2c(CC(=O)Nc3ccc(Cl)cc3C(F)(F)F)c(=O)oc3cc(Cl)c(C)cc23)c1 | 202 to 204 |
| COc1ccc(N2CCOCC2)c2sc(C(=O)NCC(=O)c3ccccc3)nc12 | 165 |
| CC1(C)C(=O)Nc2ccc(-c3ccc(F)c(Cl)c3)cc21 | 206 to 208 |
| CCCCCCCNC(=O)Nc1ccccc1C(=O)NCC1c2ccccc2COc2ccc(Br)cc21 (stereo unspecified) | 71 to 76 |
| CCSN(C)C(=O)Nc1ccc(Cl)c(Cl)c1 | 71 |
| O=C(O)c1ccc(-c2nnc(-c3ccc(OC(F)(F)C(F)(F)F)cc3)o2)cc1 | 301 to 307 |

| Structure (SMILES) | melting point [°C] |
| --- | --- |
| Nc1cccc2nc3c(nc12)N1CCCCC1CO3 (stereo unspecified) | 207 to 209 |
| O=C(O)CCCCC(=O)Oc1ccc([N+](=O)[O-])cc1 | 104 to 105 |
| CC(C)(C)c1cc(CCc2ccccc2NC(=O)NC2CCN(Cc3cc(F)cc(F)c3)CC2)cc(C(C)(C)C)c1O | 119 to 120 |
| CC(C)(C)n1cc(-c2ccc(Oc3ccccc3)cc2)c2c(N)ncnc21 | 157 to 158 |
| CCCC=Nc1cc(CO)cc(Nc2c3ccccc3nc3ccccc23)c1 | 228 to 230 |
| Cc1ccc(N2C(=O)C(O)=C(C(=O)c3ccc(C(C)C)cc3)C2c2ccc(Cn3cncn3)cc2)nn1 (stereo unspecified) | 223 |
| CCCNC(=O)Nc1ccc(-c2cn3c(n2)C(OC2CCN(C)CC2)c2ccccc2CC3)cc1 (stereo unspecified) | 130 |
| CCCCn1c(=O)[nH]c2cc(Cl)cc(Cl)c2c1=O | 198 to 201 |
| CCOC(=O)C(=CNc1cc(C)no1)C(=O)OCC | 134 to 136 |
| Cc1nc(-c2ccccc2)nc2sc3c(N4CCNCC4)nc(Cl)nc3c12 | > 310 |
| Nc1ncc(Br)nc1-c1ccccc1Cl | 138 to 140 |
| CCC(CC)Nc1nc(C)nc(Oc2c(C)cc(C)nc2C)c1[N+](=O)[O-] | 134 to 135 |
| CC(C)(C)OC(=O)NCCNC(=O)c1n[nH]cc1-c1ccccc1 | 71 |
| CN(c1cccc2cc(C(N)=O)[nH]c12)S(=O)(=O)c1ccccc1C(F)(F)F | 223 to 224 |
| CC(C)n1cc(-c2c(-c3ccc(F)cc3)nn3ccncc23)ccc1=O | 214 to 215 |
| CCn1c(=O)c(=O)[nH]c2ccc([N+](=O)[O-])cc21 | > 300 |
| Cc1ccc(-c2cccn2-c2ccc(S(C)(=O)=O)cc2)cc1 | 186 to 187 |
| Cc1ccc(CN[C@H](CO)Cc2ccccc2)cc1 | 125 to 127 |
| CN1Cc2c(-c3noc(CCl)n3)ncn2-c2cccc(F)c2C1=O | 206 |
| O=C(CNc1ccc2[nH]c(=O)sc2c1)N1CCC(Cc2ccc(F)cc2)CC1 | 149 to 155 |
| Cn1c(=O)c(-c2ccc(Cl)cc2Cl)cc2c3cc(C=NO)ccc3n(C)c21 | 287 to 290 |
| CC(C#N)(COc1ccc(Cl)cc1)NS(=O)(=O)Cc1ccccc1 (stereo unspecified) | 120 to 121 |
| NC1=Nc2ccc([N+](=O)[O-])cc2C(c2ccccc2Cl)=NC1 | 222 to 224 |
